We go through seven compounds from US20030114434A1, “EXTENDED DURATION LIGHT ACTIVATED CANCER THERAPY” (priority 1999, published 2003).

The conditions of series [1]: systemic clinical use; cited from earlier work.
The subject of series [2] is colon carcinoma tumor mass. Put plainly: Extended duration PDT of a colon carcinoma tumor mass in a patient, implanted LED probes. Format: in vivo, human. The source says: A patient in the terminal phase of recurrent malignant colon cancer having undergone chemotherapy and irradiation therapy, presented with a protruding colon carcinoma tumor mass of approximately 500 grams and approximately 13 cm in diameter, which extended through the patient's dermis. Due to the advanced state of the patient's disease and due to the highly vascularized nature of this tumor mass, resection was not feasible. Further, this large tumor mass presented a significant amount of pain and discomfort to the patient, as well as greatly impairing the patient's ability to lie flat.
Six separate light source probes, each including a linear array of LEDs, were surgically implanted in this large human tumor using standard surgical procedures. A single dose of a photosensitizer agent (aminolevulinic acid (ALA) at 60 mg/kg) was provided by oral administration to the patient. Following a period of five hours to permit sufficient clearance of the photosensitizing agent from healthy tissues, light irradiation was administered. An intensity of about 25-30 mW of light from each light source probe (650 nm peak wavelength) was delivered to the tumor for 40 hours. […] The total fluence delivered to the tumor bed during this single extended duration treatment was in excess of 20,000 Joules.
The fluence rate employed in this Example represented about 150-180 mW/cm^2, with a total fluence more than 20,000 Joules.

The test system of series [3] is transplanted human tumors. Put plainly: Nude mice with established transplanted human tumors, photosensitizer injected, low fluence light 72 hours. In kind it is in vivo. The conditions noted are these: for tumor necrosis: 660 nm light 72 hours, 30 microwatts per cm^2, after 7 days, two mice. The method, then:
(§1) A series of experiments were performed using nude mice growing transplanted human tumors. The mice are injected with various photosensitizers and the tumors illuminated with low fluence of only 30 uW of light over a 72 hour time period. Extended tumor necrosis was observed.
(§2) All control nude mice were injected with the PDT drug (intratumor or intraperitoneal) and 5 million human carcinoma cells which developed a tumor mass. These mice were kept in a darkened environment.
(§3) Another two mice with established tumors were injected with 50-100 micrograms of Pheophorbide A into the lesion and exposed to 660 nm light (30 microwatts per cm^2) for 72 hours.
(§4) Two experimental mice were injected with epithelial cancer cells preincubated with 20 micrograms of Chlorin e6. […] Another two mice were injected with 100-150 micrograms of Chlorin e6 intratumorally and then exposed to 660 nm light (30 microwatts per cm^2) for 72 hours.
Five experimental mice bearing established tumors were injected with 1 mg Hpd intraperitoneally followed by exposure to 630 nm (peak) light (30 microwatts per cm^2) for 72 hours. […] There was no effect observed on control animals maintained in the absence of light (dark control mice).

A further series has as its system epithelial cancer cells. Put plainly: Nude mice injected with epithelial cancer cells preincubated with photosensitizer, low fluence light. In kind it is in vivo. The conditions noted are these: for tumor growth: 660 nm light 48 hours, two mice. The method, then: as §1, §2, §3, §4
For series [4] the following is noted: cited from earlier work.

“And” between values parts separate entries of the source, which are not always exact repeats. Identical values can stand only once.

Consider `CCOC(=O)C1=Cc2c3nc(cc4nc(cc5[n-]c(cc6[n-]c2c(C)c6CC)c(C)c5CC)C(C)=C4CC)[C@@H](C)[C@]13CC.[Cl-].[Cl-].[Sn]` (racemic) [PURLYTIN], for which the “duration of dermal photosensitivity” value in series [1] is given as “at least several weeks”.
Consider `NCC(=O)CCC(=O)O` [ALA, aminolevulinic acid], for which the “collateral damage to surrounding normal tissue” value in series [2] (ALA 60 mg/kg oral, after 40 hours of PDT) is “no collateral damage”. Moreover, in series [2] (ALA 60 mg/kg oral, light from 5 hours after dose, 650 nm, 40 hours of PDT, total fluence >20,000 Joules), the “radius of extensive tumor necrosis from each light source probe” value is “greater than 5 cm”. Moreover, the “reduction of tumor tissue (necrotic tissue debrided)” value in series [2] (over four weeks following PDT) is listed as “approximately 500 grams”.
For `C=Cc1c(C)c2cc3nc(c(CC(=O)O)c4[nH]c(cc5nc(cc1[nH]2)C(C)=C5CC)c(C)c4C(=O)O)[C@@H](CCC(=O)O)[C@@H]3C` [Chlorin e6], the tumor necrosis result in series [3] (100-150 micrograms intratumorally) is recorded as “Extensive tumor necrosis”. Further, in the series on epithelial cancer cells (Chlorin e6 experiment, absence of light), the “tumor growth, dark control” value is “developed a large tumor”. Moreover, the tumor growth entry with epithelial cancer cells (cells preincubated with 20 micrograms, 30 microwatts per cm^2, after 1.5 months) is on record as “no tumor growth”.
`Oc1cccc(-c2c3nc(c(-c4cccc(O)c4)c4ccc([nH]4)c(-c4cccc(O)c4)c4nc(c(-c5cccc(O)c5)c5ccc2[nH]5)CC4)C=C3)c1` [FOSCAN]: in series [1], the “duration of dermal photosensitivity” value is given as “at least several weeks”.
Take `CC(=O)[O-].CC(=O)[O-].CCc1c(CC)c2cc3nc(cnc4cc(OCCOCCOCCOC)c(OCCOCCOCCOC)cc4ncc4nc(cc1[n-]2)C(CCCO)=C4C)C(C)=C3CCCO.O.[Lu+3]` [Lutrin, lutetium texaphyrin]: the “time for clearance from normal tissues (predominant amount)” value in series [4] (from administration) was “about 24 hours”. Besides, in series [4] (from time of administration), the “time tumor tissue retains the agent” value was 48 to 96 h and 24 to 96 h. Also, in series [4] (in vivo), the “time at which a larger proportion clears from normal tissue” value is listed as “about 8 hours”, the “time at which a proportion begins to clear from normal tissue” value is on record as “about 3 hours” and the “time at which an even greater proportion clears from normal tissue” value was “about 16 hours”.
As to Pheophorbide A, the tumor necrosis entry in series [3] (50-100 micrograms into the lesion) is on record as “Extensive tumor necrosis”. Also, the “effect on tumor, dark control” value in series [3] (Pheophorbide A experiment, absence of light) is listed as “no effect”. Further, the “tumor growth, dark control” value in the series on epithelial cancer cells (Pheophorbide A experiment, maintained in the absence of light) is given as “developed a large tumor”. Also, the tumor growth entry with epithelial cancer cells (cells preincubated with 10 micrograms, 30 microwatts per cm2, after 1.5 months) is on record as “no tumor growth”.
For the compound sodium porfimer [PHOTOFRIN], the “duration of dermal photosensitivity” value in series [1] was “up to six weeks”.
